Laboratory results taken from US12233047B2, “Pharmaceutical combination and use thereof” (ASCENTAGE PHARMA (SUZHOU) CO., LTD., priority 2019, dated 2025).

How the values were obtained:
[1] = tested on: Human AML cell line MV-4-11 (FLT3-ITD positive and wild type TP53 gene); assay: Human MV-4-11 AML subcutaneous mouse xenograft model; type: in vivo; conditions: MV-4-11 subcutaneous xenograft, Compound 23 10 mg/kg, Compound C 30 mg/kg
Method: The formulation of Compound C was prepared as homogenous suspension in 0.2% HPMC using a mortar. The drug suspension was prepared every three days or once a week and placed at 4° C. when not in use. Before use, the drug suspension was placed at room temperature and shaken to mix well. The formulation of Compound C was administered to mice via p.o. in a volume of 10 mL/kg. […] The drug suspension was prepared once every other day and placed at 4° C. when not in use. Before use, the drug suspension was placed at room temperature and shaken well. […] MV-4-11 cells (Human AML cell line MV-4-11 (FLT3-ITD positive and wild type TP53 gene)) were maintained in IMDM (Cat. C12440500BT, GIBCO), with 10% fetal bovine serum (Cat. 10099-141, GIBCO), 1% L-glutamine, 100 U/mL penicillin G and 100 μg/mL streptomycin (Cat. GNM15140, Hangzhou Geno Biomedical Technology Co., Ltd). Cells were incubated at 37° C. in a humidified incubator with 5% CO2. Six to eight weeks old, female, NOD SCID and BALB/c nude mice were used. Animals were obtained from Vital River Laboratories (VRL, Beijing, China, license number SCXK(J) 2012-0001 and SCXK(J) 2016-0006). The body weights were 17-24 g. Randomization was conducted when the size of xenograft tumors reached 100-150 mm^3. Based on the size of the tumor and body weight, animals were randomly assigned into experimental groups. […] MV-4-11 subcutaneous xenograft models were established by subcutaneously injecting tumor cells (1×10^7 cells (50% Matrigel)/mouse) into the right flank of the mouse under the sterile condition. When the tumors reached an appropriate size (100-200 mm^3), mice were randomized into 6 mice per group and treatment was initiated (day 1) according to Table 4. [table] The tumors sizes and animal body weights were measured twice a week. Tumor volumes were estimated from measurements of two diameters of the individual tumors as follows: Tumor Volume (mm^3)=(a×b^2)/2 Relative tumor volume (RTV) were calculated according to the follows: RTV=Vt/V1 where V1 and Vt were respectively the average tumor volume on the first day of treatment (day 1) and the average tumor volume on a certain time point (day T). Standard NCI procedures were used to calculate tumor parameters (Teicher, B. A. (2011). “Tumor Models in Cancer Research.” Second Edition, Human Press). Percent tumor growth inhibition (% T/C) was calculated as the mean RTV of treated tumors (T) divided by the mean RTV of control tumors (C)×100%. […] A body weight loss (mean of group) of greater than 20%, or greater than 20% of drug deaths are considered to indicate an excessively toxic dosage. The synergistic analysis was performed using the following formula described in Clarke R. Issues in experimental design and endpoint analysis in the study of experimental cytotoxic agents in vivo in breast cancer and other models[J]. Breast Cancer Research & Treatment, 1997, 46(2-3):255-278, which is incorporated by reference in its entirety: expected value=(A/C)×(B/C); actual value=(AB)/C; A: RTV of drug A; B: RTV of drug B; C=RTV of the vehicle control group; AB=RTV of the combination group. Ratio=expected/actual value. […] A ratio=1 indicates the two drugs have additive effects. A ratio <1 indicates the two drugs may have antagonist effects. According to the earlier publication (Gao, H., et al. (2015). “High-throughput screening using patient-derived tumor xenografts to predict clinical trial drug response” Nat Med 21: 1318), additional measurements of response included stable disease (SD), partial tumor regression (PR), and complete regression (CR) were determined by comparing tumor volume change at day t to its baseline: tumor volume change (%)=(Vt−V1)/V1. […] For each time t, the average of tumor volume change from t=1 to t was also calculated. […]

[2] = tested on: Human AML cell line MOLM-13 (FLT3-ITD positive and wild type TP53 gene); assay: Human MOLM-13 AML systemic mouse xenograft model, survival; type: in vivo; conditions: MOLM-13 systemic model, Compound 23 10 mg/kg, Compound C 20 mg/kg, p.o. q2d × 21 d
Method: The formulation of Compound C was prepared as homogenous suspension in 0.2% HPMC using a mortar. The drug suspension was prepared every three days or once a week and placed at 4° C. when not in use. Before use, the drug suspension was placed at room temperature and shaken to mix well. The formulation of Compound C was administered to mice via p.o. in a volume of 10 mL/kg.
The formulation of Compound 23 was prepared in 0.2% HPMC in a mortar to generate homogenous suspension. The drug suspension was prepared once every other day and placed at 4° C. when not in use. Before use, the drug suspension was placed at room temperature and shaken well. The formulation of Compound 23 was administered to mice via p.o. in a volume of 10 mL/kg.
MOLM-13 cell lines (Human AML cell line MOLM-13 (FLT3-ITD positive and wild type TP53 gene)) were maintained in RPMI-1640 (Cat. C11875500BT, GIBCO) with 10% fetal bovine serum (Cat. 10099-141, GIBCO), 1% L-glutamine, 100 U/mL penicillin G and 100 μg/mL streptomycin (Cat. GNM15140, Hangzhou Geno Biomedical Technology Co., Ltd). Cells were incubated at 37° C. in a humidified incubator with 5% CO2.
Six to eight weeks old, female, NOD SCID and BALB/c nude mice were used. Animals were obtained from Vital River Laboratories (VRL, Beijing, China, license number SCXK(J) 2012-0001 and SCXK(J) 2016-0006). The body weights were 17-24 g.
MOLM-13 systemic tumor model were established by injecting tumor cells into the tail vein (10×10^6 cells/mouse) under the sterile condition. To establish the MOLM-13 systemic model, all animals were intraperitoneally injected (i.p.) with cyclophosphamide (150 mg/kg) for two consecutive days before the inoculation of MOLM-13 cells. On the third day after cell inoculation, animals were randomized into 10 mice per group and treatment was initiated (day 1) according to Table 2.
The animals were euthanized when the experimental animals had symptoms such as weight loss and weight loss greater than 20%, limb paralysis, tumor metastasis to the eye causing ocular protrusion, tumor metastasis to the abdominal cavity causing abdominal enlargement. These severe health issues were considered as the same as animal death caused by tumor growth and the affected animals were sacrificed immediately.
The date of the last mouse died (the last measurement) was used for analysis of median overall survival and the generation of Kaplan-Meier plots. Survival curves of different treatment groups were compared using log-rank test with Bonferroni's multiple test. All data were analyzed in SPSS version 18.0 (IBM, Armonk, NY, U.S.A.). Prism version 6 (GraphPad Software Inc., San Diego, CA, U.S.A.) was used for graphic presentation.

CCN1[C@@H](C(=O)NC23CCC(C(=O)O)(CC2)CC3)[C@H](c2cccc(Cl)c2F)[C@]2(C(=O)Nc3cc(Cl)ccc32)C12CCCCC2 [Compound C]
Tumor weight on D 22 (Mean ± SEM) ([1]; day 22, p.o. q2d × 22 d, vehicle 2.29 ± 0.29, in g (unit assumed)): 1.45 ± 0.32 | T/C(%)@D 22 ([1]; mean RTV treated/control, day 22, p.o. q2d): 59.6% | RTV@D 22 ([1]; relative tumor volume day 22, p.o. q2d, vehicle 18.2 ± 3.3): 10.8 ± 1.6 | Median survival time of mice ([2]; vehicle 19 days): 25.5 days | Prolonged survival time of mice ([2]; versus vehicle): 6.5 days
